The text below walks through data of patent US9359406B2, “Vaccine for a therapeutic or a prophylactic treatment of myasthenia gravis” (CuraVac Inc., priority 2006, dated 2016).

The test system of experiment [1] is experimental autoimmune myasthenia gravis (EAMG). The experiment in a line: Example 3: EAMG induced with purified Torpedo AChR in Lewis rats vaccinated with T-peptide, B-peptide or both. The format is in vivo. Particulars: immunized three times. An excerpt: To evaluate whether vaccination with T-peptide together with B-peptide with an hydrocarbon group causes a different effect on experimental autoimmune myasthenia gravis (EAMG) than either B with an hydrocarbon group and T-peptide alone and separately, Lewis rats were immunized three times with keyhole limpet hemacyanin (KLH) or T-peptide or B-peptide with an hydrocarbon group coupled to KLH either alone or in combination. EAMG was then induced with purified Torpedo AChR and disease was monitored.

The subject of experiment [2] is pathogenic antibodies. The experiment in a line: Pathogenic antibodies level in rats given B-peptide and T-peptide alone or together. Format: in vivo. Particulars: result in words. Here is the method: As previously described, the peptide RhCA 67-16 also called herein B-peptide and the peptide RhCA 611-001 also referred herein T-peptide were tested alone on rats.

Experiment [3] concerns Experimental Autoimmune Myasthenia Gravis (EAMG). Particulars: cited from earlier work.

No end group written: not given here.

For “NH2-Phe-Asn-Ser-Thr-Ile-Ile-Gly-Trp-Ile-Pro-Ala-Lys-Pro-His-Ile-Asn (H-FNSTIIGWIPAKPHIN; also: Trp8 carries at least one 2,4,6-trimethoxybenzyl group) [RhCA 67-16]”, in experiment [1], the “Average Severity” value amounted to 1.33 ± 0.55; the “EAMG Incidence (%)” value is listed as 55.56%; the “Mortality (%)” value is reported as 22.22%; the “Severity 0, number of rats” value was 4. In experiment [1], the “Severity 1, number of rats” value was found to be 2; the “Severity 2, number of rats” value was 1; the “Severity 4, number of rats” value stood at 2. Further, in experiment [2], the pathogenic antibodies level entry is listed as “significant decrease”. The “incidence of the disease in vaccinated animals” value in experiment [3] (peptide conjugated to KLH, controls 90%) was 25%. The “clinical severity scoring in animals with disease, average” value in experiment [3] (peptide conjugated to KLH, positive controls 3.5) is recorded as 1.0.

“NH2-Tyr-Phe-Ser-Arg-Ile-Ile-Gln-Lys-Gln-Phe-Gly-His-Val-Asn-Asn-Gly-Lys (H-YFSRIIQKQFGHVNNGK) [RhCA 611-001, peptide complementary to residues 100-116 of the α-chain of the AChR]”: in experiment [1], the “Average Severity” value is listed as 1.22 ± 0.55; the “EAMG Incidence (%)” value is recorded as 55.56%; the “Mortality (%)” value turned out to be 22.22%; the “Severity 0, number of rats” value is given as 4. Besides, in experiment [1], the “Severity 1, number of rats” value was found to be 3 and the “Severity 4, number of rats” value is 2. Moreover, the pathogenic antibodies level result in experiment [2] was “significant decrease”. The “clinical outcome after immunization” value in experiment [3] (Lewis rats, result in words) is “marked clinical improvement, lowered mortality and preservation of AChR levels on muscles”.
